Data reported in article PMC4238264, “A Lectin from Dioclea violacea Interacts with Midgut Surface of Lutzomyia migonei, Unlike Its Homologues, Cratylia floribunda Lectin and Canavalia gladiata Lectin” (The Scientific World Journal, 2014).

Target: T1, Dioclea violacea lectin (DVL) (Macropsychanthus violaceus, UniProt I1SB09)
T1 sequence (I1SB09 1-237): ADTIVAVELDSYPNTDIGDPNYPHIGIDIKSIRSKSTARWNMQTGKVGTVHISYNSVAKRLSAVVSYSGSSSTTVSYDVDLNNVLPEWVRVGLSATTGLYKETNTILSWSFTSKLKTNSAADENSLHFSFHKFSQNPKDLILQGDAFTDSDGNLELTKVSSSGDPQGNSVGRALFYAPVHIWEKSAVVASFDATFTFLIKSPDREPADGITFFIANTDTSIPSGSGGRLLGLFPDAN
Experiment: fluorescence microscopy of FITC-lectin binding to fixed Lutzomyia migonei midgut, lectin blocked with sugar
Conditions: 0.1 M D-mannose, 37 °C, 30 min preincubation; carbohydrate recognition domain; FITC-labelled lectin 100 µg/mL

Q: How did the “fluorescence microscopy of FITC-lectin binding to fixed Lutzomyia migonei midgut” value turn out when `OC[C@H]1OC(O)[C@@H](O)[C@@H](O)[C@@H]1O` (stereo partly drawn) [D-mannose] was run?
A: The value was “when the midguts were treated with blocked DVL, a remarkable decrease in the fluorescence pattern”.
